Laboratory results: paper PMC3304000 (Bioorganic & medicinal chemistry, 2012)
≈ marks a conversion by molar mass, not a printed value. Where “and” joins values, the source holds several entries; their conditions need not be identical. Identical values can stand only once.

What was measured:
[1] = tested on: Drug sensitive Mtb clinical strain #1; test: MIC against clinical Mtb strain in 7H9/glucose/glycerol/BSA/0.05% Tween 80; type: cell-based; details: Mycobacterium tuberculosis
[2] = Stability in simulated gastric fluid; details: after a 15-min incubation
[3] = tested on: Drug sensitive Mtb clinical strain #2; test: MIC against clinical Mtb strain in 7H9/glucose/glycerol/BSA/0.05% Tween 80; type: cell-based; details: Mycobacterium tuberculosis
[4] = In vitro stability in rat liver microsomes; details: after a 15-min incubation
[5] = tested on: twelve MDR- and XDR-Mtb strains; details: cited from earlier work
[6] = tested on: Mtb H37Rv luxAB luminescence strain; test: microbe, parasite or virus in culture; type: cell-based; details: Mycobacterium tuberculosis, read-out: LORA MIC (mean ± SD)

Compound | MIC [1] | compound remaining in simulated gastric fluid [2] [%] | other results
O=[N+]([O-])c1cn2c(n1)OC[C@@H](OCc1ccc(OC(F)(F)F)cc1)C2 [PA-824, reference compound] | 0.45 µM to 0.86 µM and 0.16 µg/mL to 0.31 µg/mL | – | –
O=C(OCc1ccccc1)c1coc(-c2ccccc2)n1 [Compound 2] | 4.4 µM to 8.9 µM and 1.25 µg/mL to 2.5 µg/mL | 0.6 | MIC [3]: 2.2 to 4.4 µM (≈ 0.614 to 1.23 µg/mL); compound remaining in rat liver microsomes [4]: 11%
O=C(OCc1ccccc1)c1csc(-c2ccccc2)n1 [Compound 5] | 10 µg/mL (≈ 33.9 µM) | – | –
Cc1ccn2c(C(=O)NCc3ccccc3)c(C)nc2c1 [Compound 12, N-benzyl-2,7-dimethylimidazo[1,2-a]pyridine-3-carboxamide] | – | 100 | MIC against a panel of twelve MDR- and XDR-Mtb strains [5]: 0.07 to 2.3 µM
Cc1ccn2c(C(=O)OCc3ccccc3)c(C)nc2c1 [Compound 11, benzyl 2,7-dimethylimidazo[1,2-a]pyridine-3-carboxylate] | < 0.01 µg/mL | – | –
Cc1ccn2c(C(=O)OCc3ccccc3)c(-c3ccccc3)nc2c1 [Compound 9, benzyl 7-methyl-2-phenylimidazo[1,2-a]pyridine-3-carboxylate] | – | – | MIC [6]: 22 µM (≈ 7.53 µg/mL)
